Blank lines part the entries; values can stand above or below the molecule they belong to.
What was measured:
[1] = target: T1, Potassium voltage-gated channel subfamily A member 5 (Homo sapiens, UniProt P22460); test: Antagonist activity at human Kv1.5 expressed in mouse L929 cells assessed as inhibition of delayed rectifier repolarization current at 0.3 uM by patch clamp assay relative to control; assay type: cell-based
[2] = target: T1, Potassium voltage-gated channel subfamily A member 5; test: Antagonist activity at human Kv1.5 expressed in mouse L929 cells assessed as inhibition of delayed rectifier repolarization current by patch clamp assay; assay type: cell-based
[3] = target: T2, Nuclear receptor subfamily 1 group I member 2 (Homo sapiens, UniProt O75469); test: Transactivation of PXR (unknown origin)
T2 sequence (O75469 whole entry): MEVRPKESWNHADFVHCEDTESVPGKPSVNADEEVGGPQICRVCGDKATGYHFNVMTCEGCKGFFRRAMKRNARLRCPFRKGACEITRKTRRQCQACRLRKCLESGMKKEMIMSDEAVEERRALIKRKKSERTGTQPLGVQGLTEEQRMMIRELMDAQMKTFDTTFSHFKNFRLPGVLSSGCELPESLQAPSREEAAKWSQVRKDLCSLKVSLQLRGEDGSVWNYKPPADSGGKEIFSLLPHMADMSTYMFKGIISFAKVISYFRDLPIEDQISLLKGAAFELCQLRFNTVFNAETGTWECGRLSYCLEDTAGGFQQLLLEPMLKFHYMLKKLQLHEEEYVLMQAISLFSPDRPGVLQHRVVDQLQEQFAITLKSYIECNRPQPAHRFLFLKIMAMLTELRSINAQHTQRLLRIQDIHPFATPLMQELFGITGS

[4] = target: hERG (KCNH2) (Homo sapiens, UniProt Q12809); test: Inhibition of human ERG current in HEK293 cells at 10 uM by patch clamp method relative to control; assay type: cell-based; conditions: HEK293 cells expressing human ERG
[5] = target: Cytochrome P450 3A4 (Homo sapiens, UniProt P08684); test: Inhibition of CYP3A4 (unknown origin); assay type: ADME
[6] = target: Cytochrome P450 2D6 (Homo sapiens, UniProt P10635); test: Inhibition of CYP2D6 (unknown origin); assay type: ADME
[7] = target: Cytochrome P450 2C19 (Homo sapiens, UniProt P33261); test: Inhibition of CYP2C19 (unknown origin); assay type: ADME
[8] = target: Cytochrome P450 2C9 (Homo sapiens, UniProt P11712); test: Inhibition of CYP2C9 (unknown origin); assay type: ADME
[9] = target: T3, Cytochrome P450 1A2 (Homo sapiens, UniProt P05177); test: Inhibition of CYP1A2 (unknown origin); assay type: ADME
T3 sequence (P05177 whole entry): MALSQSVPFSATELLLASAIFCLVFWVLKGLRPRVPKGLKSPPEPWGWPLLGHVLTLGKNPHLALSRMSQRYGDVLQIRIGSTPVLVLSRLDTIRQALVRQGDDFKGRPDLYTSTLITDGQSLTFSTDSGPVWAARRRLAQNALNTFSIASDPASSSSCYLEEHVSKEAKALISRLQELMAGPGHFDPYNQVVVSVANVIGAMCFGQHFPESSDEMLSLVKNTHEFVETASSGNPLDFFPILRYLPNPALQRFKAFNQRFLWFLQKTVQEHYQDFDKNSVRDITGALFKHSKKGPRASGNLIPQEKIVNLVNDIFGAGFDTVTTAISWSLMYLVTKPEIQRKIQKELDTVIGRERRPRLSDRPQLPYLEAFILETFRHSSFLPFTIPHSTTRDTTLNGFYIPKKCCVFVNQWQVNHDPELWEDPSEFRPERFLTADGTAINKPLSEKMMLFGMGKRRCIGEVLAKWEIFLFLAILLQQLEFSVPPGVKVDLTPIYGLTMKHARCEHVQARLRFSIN

[10] = Clearance in Sprague-Dawley rat at 1 mg/kg, iv; assay type: ADME, organism-based; set-up: dose 1 mg/kg, route intravenous; conditions: in vivo
[11] = Half life in Sprague-Dawley rat at 1 mg/kg, iv; assay type: ADME, organism-based; set-up: dose 1 mg/kg, route intravenous; conditions: in vivo

T1 sequence (P22460 whole entry): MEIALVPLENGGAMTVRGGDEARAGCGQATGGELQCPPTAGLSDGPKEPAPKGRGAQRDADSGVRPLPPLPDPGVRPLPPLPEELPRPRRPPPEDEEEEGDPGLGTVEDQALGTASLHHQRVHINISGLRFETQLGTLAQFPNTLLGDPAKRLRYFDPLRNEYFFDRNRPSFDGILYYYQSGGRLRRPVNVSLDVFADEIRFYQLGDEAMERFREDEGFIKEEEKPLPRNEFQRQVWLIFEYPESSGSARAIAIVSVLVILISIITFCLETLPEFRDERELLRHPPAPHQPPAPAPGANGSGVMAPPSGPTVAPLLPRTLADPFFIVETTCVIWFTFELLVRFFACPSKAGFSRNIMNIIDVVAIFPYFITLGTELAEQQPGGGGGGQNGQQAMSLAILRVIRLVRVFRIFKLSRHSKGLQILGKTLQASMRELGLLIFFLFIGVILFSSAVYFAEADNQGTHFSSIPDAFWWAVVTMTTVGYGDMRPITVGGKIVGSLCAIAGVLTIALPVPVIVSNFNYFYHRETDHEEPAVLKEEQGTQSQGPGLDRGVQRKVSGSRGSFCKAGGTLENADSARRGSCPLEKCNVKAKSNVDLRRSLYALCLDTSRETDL
Sequence of hERG (KCNH2) (Q12809 whole entry): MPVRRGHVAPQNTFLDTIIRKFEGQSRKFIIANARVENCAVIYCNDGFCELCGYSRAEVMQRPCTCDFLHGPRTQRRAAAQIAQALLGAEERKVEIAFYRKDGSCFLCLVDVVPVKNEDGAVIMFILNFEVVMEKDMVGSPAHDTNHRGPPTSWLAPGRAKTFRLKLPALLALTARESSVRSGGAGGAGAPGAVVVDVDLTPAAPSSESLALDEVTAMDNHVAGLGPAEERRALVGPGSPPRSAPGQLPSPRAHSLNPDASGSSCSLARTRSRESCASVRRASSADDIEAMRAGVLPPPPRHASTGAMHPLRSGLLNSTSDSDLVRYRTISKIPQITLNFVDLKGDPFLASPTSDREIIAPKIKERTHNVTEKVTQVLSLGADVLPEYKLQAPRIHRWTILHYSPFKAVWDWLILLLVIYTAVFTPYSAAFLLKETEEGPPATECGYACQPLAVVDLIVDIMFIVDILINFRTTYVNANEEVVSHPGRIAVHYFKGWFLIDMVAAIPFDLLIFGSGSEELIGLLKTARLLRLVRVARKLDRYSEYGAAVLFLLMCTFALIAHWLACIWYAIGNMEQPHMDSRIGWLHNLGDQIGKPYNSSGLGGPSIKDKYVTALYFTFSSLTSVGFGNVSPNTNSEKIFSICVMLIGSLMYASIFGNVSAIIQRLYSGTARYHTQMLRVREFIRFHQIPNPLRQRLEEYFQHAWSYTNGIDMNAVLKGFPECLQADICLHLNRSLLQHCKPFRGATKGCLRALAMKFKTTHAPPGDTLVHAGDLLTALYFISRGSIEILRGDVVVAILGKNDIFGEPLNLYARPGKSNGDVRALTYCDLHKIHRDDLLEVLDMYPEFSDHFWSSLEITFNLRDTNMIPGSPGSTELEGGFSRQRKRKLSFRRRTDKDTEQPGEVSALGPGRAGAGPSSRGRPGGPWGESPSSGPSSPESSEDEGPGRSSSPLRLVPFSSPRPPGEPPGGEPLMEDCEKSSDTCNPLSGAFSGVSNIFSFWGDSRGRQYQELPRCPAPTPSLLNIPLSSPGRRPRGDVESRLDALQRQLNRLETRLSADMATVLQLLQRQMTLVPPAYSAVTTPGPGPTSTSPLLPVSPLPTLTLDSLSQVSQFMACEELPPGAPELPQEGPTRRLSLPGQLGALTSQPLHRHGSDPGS
Sequence of Cytochrome P450 2C9 (P11712 whole entry): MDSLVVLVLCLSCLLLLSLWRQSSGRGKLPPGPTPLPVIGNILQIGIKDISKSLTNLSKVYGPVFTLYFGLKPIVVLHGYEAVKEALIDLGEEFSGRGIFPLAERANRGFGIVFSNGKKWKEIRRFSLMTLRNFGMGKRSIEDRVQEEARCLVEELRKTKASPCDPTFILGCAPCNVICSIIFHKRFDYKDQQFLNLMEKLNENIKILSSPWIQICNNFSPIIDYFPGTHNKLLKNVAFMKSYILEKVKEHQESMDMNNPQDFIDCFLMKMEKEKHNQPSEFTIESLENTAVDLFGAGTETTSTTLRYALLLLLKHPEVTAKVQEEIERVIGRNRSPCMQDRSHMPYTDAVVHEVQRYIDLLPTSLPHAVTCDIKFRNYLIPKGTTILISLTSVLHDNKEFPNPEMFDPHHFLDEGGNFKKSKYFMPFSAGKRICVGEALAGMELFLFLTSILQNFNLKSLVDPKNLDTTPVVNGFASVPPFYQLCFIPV
Sequence of Cytochrome P450 3A4 (P08684 whole entry): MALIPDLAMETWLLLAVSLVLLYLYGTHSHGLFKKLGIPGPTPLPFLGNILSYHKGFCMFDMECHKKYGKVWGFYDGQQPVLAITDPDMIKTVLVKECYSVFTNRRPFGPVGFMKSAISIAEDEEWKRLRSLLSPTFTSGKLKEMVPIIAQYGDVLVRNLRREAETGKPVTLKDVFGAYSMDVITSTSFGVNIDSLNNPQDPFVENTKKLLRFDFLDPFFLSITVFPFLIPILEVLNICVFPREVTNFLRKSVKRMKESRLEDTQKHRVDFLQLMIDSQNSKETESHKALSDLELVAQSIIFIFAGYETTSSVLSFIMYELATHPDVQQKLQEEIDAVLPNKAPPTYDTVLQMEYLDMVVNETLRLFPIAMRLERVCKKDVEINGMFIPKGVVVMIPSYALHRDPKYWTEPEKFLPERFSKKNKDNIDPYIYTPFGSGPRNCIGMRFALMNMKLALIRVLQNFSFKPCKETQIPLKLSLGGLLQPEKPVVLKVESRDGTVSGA
Sequence of Cytochrome P450 2C19 (P33261 whole entry): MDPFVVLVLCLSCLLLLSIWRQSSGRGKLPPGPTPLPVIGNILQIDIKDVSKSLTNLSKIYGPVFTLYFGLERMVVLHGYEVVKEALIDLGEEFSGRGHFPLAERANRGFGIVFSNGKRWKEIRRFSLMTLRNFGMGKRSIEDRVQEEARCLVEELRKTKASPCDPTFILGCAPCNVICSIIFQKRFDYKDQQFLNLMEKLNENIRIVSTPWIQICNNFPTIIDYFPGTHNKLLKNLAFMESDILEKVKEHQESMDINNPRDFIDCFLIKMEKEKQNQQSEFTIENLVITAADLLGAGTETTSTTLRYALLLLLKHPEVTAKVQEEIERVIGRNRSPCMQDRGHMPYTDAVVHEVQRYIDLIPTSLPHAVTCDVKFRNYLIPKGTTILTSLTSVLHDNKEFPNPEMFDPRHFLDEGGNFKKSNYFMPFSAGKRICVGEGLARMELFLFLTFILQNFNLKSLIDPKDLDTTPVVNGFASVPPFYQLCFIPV
Sequence of Cytochrome P450 2D6 (P10635 whole entry): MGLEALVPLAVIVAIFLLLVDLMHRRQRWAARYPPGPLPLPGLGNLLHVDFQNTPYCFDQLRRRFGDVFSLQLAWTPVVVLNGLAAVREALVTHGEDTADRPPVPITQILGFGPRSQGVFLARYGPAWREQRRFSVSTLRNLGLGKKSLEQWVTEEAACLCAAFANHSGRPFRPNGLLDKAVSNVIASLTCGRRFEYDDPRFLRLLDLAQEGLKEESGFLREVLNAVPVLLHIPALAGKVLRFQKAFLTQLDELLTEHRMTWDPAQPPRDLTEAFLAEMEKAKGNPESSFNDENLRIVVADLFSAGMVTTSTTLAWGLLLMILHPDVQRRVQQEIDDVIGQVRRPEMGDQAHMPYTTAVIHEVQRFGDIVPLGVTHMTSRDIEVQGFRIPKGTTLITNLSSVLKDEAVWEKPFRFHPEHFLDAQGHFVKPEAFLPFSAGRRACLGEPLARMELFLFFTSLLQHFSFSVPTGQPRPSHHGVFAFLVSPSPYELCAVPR

inhibition [1]: 6%
Structure (SMILES): CC1=C(c2ncnn2CCO)[C@@H](c2ccc(Cl)c(Cl)c2)n2nccc2N1

IC50 [2]: 135 nM
Structure (SMILES): CC1=C(c2ncnn2Cc2ccccc2)[C@@H](c2ccc(Cl)c(Cl)c2)n2nccc2N1

IC50 [2]: 115 nM
Structure (SMILES): CC1=C(c2ncnn2-c2ccc(F)cc2)[C@@H](c2ccc(Cl)c(Cl)c2)n2nccc2N1

IC50 [2]: 103 nM
Structure (SMILES): CC1=C(c2ncnn2CCCC(F)(F)F)[C@@H](c2ccc(Cl)c(Cl)c2)n2nccc2N1

IC50 [2]: 74 nM
Structure (SMILES): CC1=C(c2ncnn2-c2ccccc2F)[C@@H](c2ccc(Cl)c(Cl)c2)n2nccc2N1

IC50 [2]: 97 nM
Structure (SMILES): CC1=C(c2ncnn2-c2cccc(F)c2)[C@@H](c2ccc(Cl)c(Cl)c2)n2nccc2N1

IC50 [2]: 102 nM
Structure (SMILES): CCCn1ncnc1C1=C(C)Nc2ccnn2[C@@H]1c1ccc(Cl)c(Cl)c1

IC50 [2]: 89 nM
Structure (SMILES): CC1=C(c2ncnn2C(C)C)[C@@H](c2ccc(Cl)c(Cl)c2)n2nccc2N1
inhibition at 10 µM [4]: 26%

IC50 [2]: 151 nM
Structure (SMILES): CC1=C(c2ncnn2CCC(F)(F)F)[C@@H](c2ccc(Cl)c(Cl)c2)n2nccc2N1

IC50 [2]: 80 nM
Structure (SMILES): CC1=C(c2ncnn2-c2ccc(C)cc2)[C@@H](c2ccc(Cl)c(Cl)c2)n2nccc2N1

The remaining lines, values behind:

Structure (SMILES): COc1ccccc1-n1ncnc1C1=C(C)Nc2ccnn2[C@@H]1c1ccc(Cl)c(Cl)c1
IC50 [2]: 116 nM

Structure (SMILES): COc1ccccc1-n1cnc(C2=C(C)Nc3cc(C)nn3[C@@H]2c2ccc(Cl)c(Cl)c2)n1
inhibition [1]: 4%

Structure (SMILES): CC1=C(c2ncnn2C2CCC2)[C@@H](c2ccc(Cl)c(Cl)c2)n2nc(C(F)(F)F)cc2N1
IC50 [2]: 165 nM

Structure (SMILES): COc1cccc(-n2ncnc2C2=C(C)Nc3cc(C(F)(F)F)nn3[C@@H]2c2ccc(Cl)c(Cl)c2)n1
EC20 [3]: 960 nM
inhibition at 10 µM [4]: 98%
IC50 [2]: 87 nM

Structure (SMILES): COCc1cc2n(n1)[C@H](c1ccc(Cl)c(Cl)c1)C(c1ncnn1C1CCC1)=C(C)N2
inhibition [1]: 25%

Structure (SMILES): CC1=C(c2ncnn2-c2cccc(Cl)n2)[C@@H](c2ccc(Cl)c(Cl)c2)n2nc(C(F)(F)F)cc2N1
IC50 [2]: 190 nM

Structure (SMILES): CC1=C(c2ncnn2-c2cccc(F)n2)[C@@H](c2ccc(Cl)c(Cl)c2)n2nc(C(F)(F)F)cc2N1
EC20 [3]: 70 nM
IC50 [2]: 256 nM

Structure (SMILES): COc1ccc(-n2cnc(C3=C(C)Nc4cc(C)nn4[C@@H]3c3ccc(Cl)c(Cl)c3)n2)cc1
inhibition [1]: 5%

Structure (SMILES): CC1=C(c2ncnn2-c2cccc(C(F)(F)F)n2)[C@@H](c2ccc(Cl)c(Cl)c2)n2nc(C(F)(F)F)cc2N1
EC20 [3]: 140 nM
IC50 [2]: 96 nM

Structure (SMILES): CC1=C(c2ncnn2-c2ccccn2)[C@@H](c2ccc(Cl)c(Cl)c2)n2nc(C(F)(F)F)cc2N1
inhibition [1]: 11%

Structure (SMILES): CC1=C(c2ncnn2-c2ccc(C)cn2)[C@@H](c2ccc(Cl)c(Cl)c2)n2nc(C(F)(F)F)cc2N1
IC50 [2]: 389 nM

Structure (SMILES): CC1=C(c2ncnn2C2CCC(C(F)(F)F)CC2)[C@@H](c2ccc(Cl)c(Cl)c2)n2nc(C(F)(F)F)cc2N1 (single isomer, unassigned; isomer 2)
INH [5]: 25 µM
INH [6]: 27 µM
INH [7]: 7 µM
INH [8]: 8 µM
INH [9]: 40 µM
EC20 [3]: 3600 nM
IC50 [2]: 607 nM

Structure (SMILES): CC1=C(c2ncnn2C2CCC2)[C@@H](c2ccc(Cl)c(Cl)c2)n2nc(C)cc2N1
clearance [10]: 101 mL/min/kg
half-life [11]: 36 min
inhibition at 10 µM [4]: 40%
IC50 [2]: 94 nM

— ChEMBL document CHEMBL2331425, “Triazolo and imidazo dihydropyrazolopyrimidine potassium channel antagonists” (Bioorg Med Chem Lett, 2013)
